Patent US8847018B2, “Plants tolerant to HPPD inhibitor herbicides” (Bayer CropScience AG, priority 2009, dated 2014)
Where two headings read alike, the source gives them in different places.

Assays:
[1] = test system: Rhodococcus HPPD SEQ ID No. 19 (FMP23e); assay: biochemical; format: biochemical, Rhodococcus sp. (strain RHA1), isolate ro02040
(UniProt Q0SF39) [2] = assay: biochemical; format: biochemical, Rhodococcus sp. (strain RHA1), isolate ro02040; settings: read-out: pI50 (converted)
(UniProt Q0SC92) = assay: biochemical; format: biochemical, Rhodococcus sp. (strain RHA1), isolate ro03041; settings: read-out: pI50 (converted)
[3] = test system: Rhodococcus HPPD SEQ ID No. 5 (FMP22e); assay: biochemical; format: biochemical, Rhodococcus sp. (strain RHA1), isolate ro03041
[4] = test system: T1 tobacco plants carrying FMP23e; assay: Response to bicyclopyrone, T1 tobacco classified by injury; format: in vivo, Nicotiana tabacum; settings: 100 g AI/ha, 7 DAT, FMP23e line 188
Excerpt: (§1) Seeds of wild type tobacco plants and T1 tobacco plants carrying the gene from Rhodococcus sp. (strain RHA1), isolate ro03041 FMP22e coding for HPPD FMP22 or plants carrying the gene from Rhodococcus sp. (strain RHA1) isolate ro02040 FMP23e coding for HPPD FMP23 were sown on MS media (Murashige and Skoog […]) supplemented with […] kanamycin. After 4 weeks, rooted green plantlets were transferred to soil and grown for 3 weeks in the glasshouse as described above then sprayed with a mixture containing bicyclopyrone (100 g Al/ha), ammonium sulfate and methyl ester raps oil. The plants were classified in two categories based on the phenotype developed in response to the herbicide seven days after the treatment. […] In this case, only plants containing at least one T-DNA were exposed to the herbicidal treatment.

Wild type tobacco plants = assay: as above; format: in vivo, Nicotiana tabacum; settings: 100 g AI/ha, 7 DAT, line WT
Excerpt: as §1

[5] = test system: T1 tobacco plants carrying FMP22e; assay: as above; format: in vivo, Nicotiana tabacum; settings: 100 g AI/ha, 7 DAT; for Class I (number of plants): injury: 0-30%; for Class II (number of plants): injury: 31-100%
Excerpt: as §1

(UniProt Q0SF39) [6] = assay: HPLC assay of HPPD in vitro kinetic properties; format: biochemical, Rhodococcus sp. (strain RHA1), isolate ro02040
[7] = test system: Rhodococcus HPPD SEQ ID No. 19 (FMP23e); assay: HPLC assay of HPPD in vitro kinetic properties; format: biochemical, Rhodococcus sp. (strain RHA1), isolate ro02040; settings: substrate HPP, 10 to 400 μM; SEQ ID No. 19
[8] = biological target: T1, Arabidopsis thaliana HPPD SEQ ID No. 10 (Arabidopsis thaliana, UniProt P93836); assay: HPLC assay of HPPD in vitro kinetic properties; settings: substrate HPP, 10 to 400 μM; SEQ ID No. 10
T1 sequence (P93836 with tags, fused parts or gaps): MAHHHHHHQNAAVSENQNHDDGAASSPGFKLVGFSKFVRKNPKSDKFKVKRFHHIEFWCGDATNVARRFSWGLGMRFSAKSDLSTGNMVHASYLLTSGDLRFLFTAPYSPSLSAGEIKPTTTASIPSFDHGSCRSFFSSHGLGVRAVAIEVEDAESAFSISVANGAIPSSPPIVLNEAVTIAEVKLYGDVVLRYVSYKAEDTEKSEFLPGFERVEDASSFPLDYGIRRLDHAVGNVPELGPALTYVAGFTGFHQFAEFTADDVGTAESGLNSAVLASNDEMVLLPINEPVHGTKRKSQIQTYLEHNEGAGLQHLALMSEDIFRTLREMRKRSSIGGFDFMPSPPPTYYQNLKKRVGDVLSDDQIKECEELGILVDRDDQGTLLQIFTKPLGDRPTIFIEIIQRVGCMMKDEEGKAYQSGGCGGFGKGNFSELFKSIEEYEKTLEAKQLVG
Description: All assays were started by the addition of HPPD enzyme to the assay mixture and stopped at a series of times between 0 and 240 s by addition of 200 μl of the reaction mixture to reaction assay tubes containing 20 μl 10% perchloric acid. Precipitated protein was pelleted by a 5 minute centrifugation at 10,000 g. […] For Km and Vmax value determinations the initial rates of the HPPD reaction at different substrate concentrations were determined from plots of HGA formed versus time and fitted to the Michaelis-Menten equation for unireactant enzymes using the ID Business Solutions Ltd. (idbs.com) XLfit software suite.

[9] = test system: tobacco plants containing Arabidopsis HPPD; assay: Glasshouse trial, herbicidal damage on T1 tobacco; format: in vivo, Nicotiana tabacum; settings: 7 DAT, 100 g AI/ha spray; Arabidopsis HPPD line 258, single T1 plants
Description: T0 Tobacco plants containing either the gene from Arabidopsis coding for HPPD or the gene FMP22e from Rhodococcus sp. (strain RHA1), isolate ro03041 coding for FMP22 HPPD, or the gene FMP23e from Rhodococcus sp. (strain RHA1), isolate ro02040 mentioned above (Example 3), were transferred to the glasshouse (28/20° C.), to develop further and produce seeds. Those seeds were harvested and put on soil (ED73 mixed with sand and osmocote Pro) to germinate in the glasshouse (28/20° C.). Three to four weeks later, plantlets were transferred to single pots containing the soil mentioned above. Two weeks later, plants of a size 4-6 cm diameter were sprayed with either • tembotrione at 100 gAl/ha prepared from a WP20 (wettable powder 20%) formulation supplemented with ammonium sulfate and methyl ester raps oil, or • isoxaflutole at 100 gAl/ha prepared from a WP20 formulation supplemented with ammonium sulfate and methyl ester raps oil, or • bicyclopyrone at 100 gAl/ha prepared from a WP20 formulation supplemented with ammonium sulfate and methyl ester raps oil, or • “blind formulation” made from a WP20 formulation without active ingredient (Al) supplemented with ammonium sulfate and methyl ester raps oil, and were then transferred to a growth chamber with adequate light conditions (20000 Lux).

wild-type soybean shoots = assay: Soybean shoot greening on isoxaflutole selection; format: cell-based; settings: same amount of isoxaflutole
Excerpt: (§2) Soybean transformation is achieved using methods well known in the art, such as the one described using the Agrobacterium tumefaciens mediated transformation soybean half-seed explants described by Paz et al. (2006, Plant cell Rep. 25:206). Transformants were identified using Isoxaflutole as selection marker. The appearance of green shoots was observed, and documented as an indicator of tolerance to the herbicide isoxaflutole.

[10] = test system: transgenic soybean shoots, FMP23t-h; assay: Soybean shoot greening on isoxaflutole selection; format: cell-based; settings: isoxaflutole as selection marker
Excerpt: as §2

[11] = test system: transgenic soybean shoots, FMP22t-h; assay: Soybean shoot greening on isoxaflutole selection; format: cell-based; settings: isoxaflutole as selection marker
Excerpt: as §2

[12] = biological target: T1, Arabidopsis thaliana HPPD SEQ ID No. 10; assay: HPPD activity in presence of HPPD inhibitors (pI50, % inhibition); format: biochemical; set-up: made in house; host or cells: E. coli K-12 BL21 (pQE30-AtHPPD)
[13] = SEQ ID No. 19, 5.0 × 10^−6 M inhibitor
[14] = SEQ ID No. 5, 5.0 × 10^−6 M inhibitor

## Cc1ccc(C(=O)COc2c(C(=O)c3ccc(Cl)c(C)c3Cl)c(C)nn2C)cc1 [Benzofenap]
[1]; [13]
  percentage of inhibition compared to activity in absence of the inhibitor: 72%
(UniProt Q0SF39) [2]
  IC50: 2.51 µM
(UniProt Q0SC92)
  IC50: 3.98 µM
[3]; [14]
  percentage of inhibition compared to activity in absence of the inhibitor: 57%

## COCCOCc1nc(C(F)(F)F)ccc1C(=O)C1=C(O)C2CCC(C2)C1=O (stereo not drawn) [Bicyclopyrone, 4-hydroxy-3-[[2-[(2-methoxyethoxy)methyl]-6-(trifluoromethyl)-3-pyridinyl]carbonyl]bicyclo[3.2.1]oct-3-en-2-one]
[1]; [13]
  percentage of inhibition compared to activity in absence of the inhibitor: 1%
(UniProt Q0SF39) [2]
  IC50: 63.1 µM
[4]
  % of tolerant plant: 59%
[4]; injury: 0-30%
  Class I (number of plants): 100
[4]; injury: 31-100%
  Class II (number of plants): 70
Wild type tobacco plants
  % of tolerant plant: 0%
Wild type tobacco plants; Class I: no to light injuries (injury: 0-30%)
  Class I (number of plants): 0
Wild type tobacco plants; Class II: strong injuries (injury: 31-100%)
  Class II (number of plants): 12
[5]; FMP22e line 64
  % of tolerant plant: >50%
  Class I (number of plants): >100
  Class II (number of plants): 104
[5]; FMP22e line 65
  % of tolerant plant: 64%
  Class I (number of plants): 86
  Class II (number of plants): 48
[5]; FMP22e line 163
  % of tolerant plant: 50%
  Class I (number of plants): 45
  Class II (number of plants): 46
(UniProt Q0SC92)
  IC50: 126 µM
[3]; [14]
  percentage of inhibition compared to activity in absence of the inhibitor: 0%

## CS(=O)(=O)c1cc(C(F)(F)F)ccc1C(=O)C(C#N)C(=O)C1CC1 (stereo not drawn) [Diketonitrile, 2-cyano-3-cyclopropyl-1-(2-methylsulphonyl-4-trifluoromethylphenyl)-propane-1,3-dione]
[1]; [13]
  percentage of inhibition compared to activity in absence of the inhibitor: 11%
(UniProt Q0SF39) [2]
  IC50: 25.1 µM
(UniProt Q0SF39) [6]
  Ki: 3.6 µM
(UniProt Q0SC92)
  IC50: 15.8 µM
[3]; [14]
  percentage of inhibition compared to activity in absence of the inhibitor: 27%

## O=C(O)C(=O)Cc1ccc(O)cc1 [HPP, para-hydroxyphenylpyruvate]
[7]
  Km: 35 µM
  Vmax: 1.1 µM
[8]
  Km: 6.3 µM
  Vmax: 1.2 µM

## CS(=O)(=O)c1cc(C(F)(F)F)ccc1C(=O)c1cnoc1C1CC1 [Isoxaflutole, (5-cyclopropyl-4-isoxazolyl)[2-(methylsulfonyl)-4-(trifluoromethyl)phenyl]methanone]
[9]
  % injury: 100%
wild-type soybean shoots
  appearance of shoots treated with isoxaflutole: entirely bleached
[10]
  transgenic tested shoots showing normal greening: 1.9%
[11]
  transgenic tested shoots showing normal greening: 1.8%

## CS(=O)(=O)c1ccc(C(=O)C2C(=O)CCCC2=O)c([N+](=O)[O-])c1 [Mesotrione, 2-[4-(methylsulfonyl)-2-nitrobenzoyl]-1,3-cyclohexanedione]
[1]
  percentage of inhibition compared to activity in absence of the inhibitor: 67%
[3]
  percentage of inhibition compared to activity in absence of the inhibitor: 54%

## Cc1nn(C)c(O)c1C(=O)c1ccc(C(F)(F)F)cc1S(C)(=O)=O [Pyrasulfotole]
[1]; SEQ ID No. 19, 2 mM HPP, 3 minutes incubation
  pI50: 4.1
[1]; [13]
  percentage of inhibition compared to activity in absence of the inhibitor: 2%
[12]; 2 mM HPP, 3 minutes incubation
  pI50: 5.4
[12]; 5.0 × 10^−6 M inhibitor
  percentage of inhibition compared to activity in absence of the inhibitor: 69%
[3]; SEQ ID No. 5, 2 mM HPP, 3 minutes incubation
  pI50: 4.0
[3]; [14]
  percentage of inhibition compared to activity in absence of the inhibitor: 0%

## CS(=O)(=O)c1ccc(C(=O)C2C(=O)CCCC2=O)c(Cl)c1 [Sulcotrione, 2-[2-chloro-4-(methylsulfonyl)benzoyl]-1,3-cyclohexanedione]
[1]
  pI50: 5.5
  percentage of inhibition compared to activity in absence of the inhibitor: 73%
[3]
  pI50: 5.3

## CS(=O)(=O)c1ccc(C(=O)C2C(=O)CCCC2=O)c(Cl)c1COCC1CCCO1 (stereo not drawn) [Tefuryltrione, 2-[2-chloro-4-(methylsulfonyl)-3-[[(tetrahydro-2-furanyl)methoxy]methyl]benzoyl]-1,3-cyclohexanedione]
[1]; [13]
  percentage of inhibition compared to activity in absence of the inhibitor: 65%
(UniProt Q0SF39) [2]
  IC50: 2.51 µM
(UniProt Q0SC92)
  IC50: 6.31 µM
[3]; [14]
  percentage of inhibition compared to activity in absence of the inhibitor: 43%
